Experimental data as given in US10413535B2, “Pharmaceutical compositions comprising an integrin ALPHA4 antagonist for use in treating ocular inflammatory conditions” (AXEROVISION, INC., priority 2015, dated 2019).
Values joined by “and” are separate entries in the source; they are usually repeats but may differ in a detail not shown here. Equal values may be shown once. Read-outs that look alike come from different tables or passages of the source.

Experiments:
[1] = system: IL-1α, MMP-9, CXCL9, TGF-β1 expression; test: Inflammatory marker gene expression in cornea and conjunctiva (real time PCR), desiccating stress model; type: in vivo, mouse; settings: topical 30 mg/mL, 5 days DS, vs vehicle
Experimental: Female C57BL/6 mice, aged 6 to 8 weeks, were subjected to DS for 5 days (DS5) as described previously (de Paiva et al., 2006b; Niederkorn et al., 2006). Topical bilateral treatment with 1 eye drop per eye (2 μL volume) or subcutaneous injection (4 μL volume), 2 times per day, was initiated on day 1 concurrently with DS and continued through day 4. Treatment with the compound of formula I or dexamethasone phosphate 0.1% was compared to correspondingly treated vehicle controls. Mice were randomized to receive one of the test articles. Control mice were kept in a non-stressed (NS) environment maintained at 50-75% relative humidity without exposure to airflow or scopolamine and were not treated with test or control article. Treatment effects were assessed on corneal staining with Oregon Green Dextran (OGD); expression of inflammatory markers in ocular surface tissues by real time PCR; cell population analysis in draining cervical lymph nodes by FACS analysis; conjunctival T cell infiltration by immunohistochemistry.
Total RNA was isolated from corneal and conjunctival epithelia that was collected and pooled from 2 eyes (right and left) at each time point from untreated control mice, mice subjected to DS for 5 days (DS5), DS5 mice topically treated with the compound of formula I ([…]) and vehicle treated animals (n=7/group) using a PicoPure™ RNA Isolation Kit (Acturus Bioscience Inc, Mountain View, Calif., USA) following the manufacturer's protocol. Briefly, corneal epithelial cells were scraped and whole conjunctiva was cut and placed in 100 μL of extraction buffer and incubated at 42° C. for 30 minutes. The cell extract was loaded onto a preconditioned purified column, which was centrifuged, treated with DNase (Qiagen, Valencia, Calif., USA) and washed twice with two different wash buffers. The RNA was eluded in 12 μL of low ionic strength buffer. The RNA concentration was measured by absorption at 260 nm using a spectrophotometer (NanoDrop 2000, Thermo Scientific, Wilmington, Del., USA) and samples were stored at −80° C. until use. First-strand cDNA was synthesized from 1 μg of total RNA with random hexamers using M-MuLV reverse transcriptase (Ready-To-Go You-Prime First-Strand Beads; Amersham Pharmacia Biotech, Inc., Piscataway, N.J.) as previously described (de Paiva et al., 2006a).
A cDNA aliquot (1-4 μL) from samples was used for real time PCR in a total volume of 10 μL containing the following per reaction: 0.3 μL of gene specific Taqman probes used and 5 μL of 2× Taqman Fast PCR Master Mix, (Applied Biosystems). Real time PCR was performed on a StepOnePlus™ Real-Time PCR System (Applied Biosystems) and the parameters consisted of pre-denaturation at 95° C. for 22 sec, followed by 40 cycles of denaturation at 95° C. for 1 sec, annealing and extension at 60° C. for 20 sec. Samples and standards were assayed in duplicate. A non-template control and total RNA without retrotranscription were included in all the experiments to evaluate PCR and DNA contamination of the reagents used. The following mouse Taqman probes were used: IL-1α (Mm00439620); MMP-9 (Mm00442991); CXCL9 (Mm004434946); TGF-β1 (Mm00441724) and HPRT-1 (Mm00446968). The HPRT-1 gene was used as an endogenous reference for each reaction. The results of quantitative PCR were analyzed by the comparative CT method where target change=2-ΔΔ CT. The results were normalized by the CT value of HPRT-1 of the untreated control group (de Paiva et al., 2006b).
Due to skewed distribution of OGD data, the analysis was done on the log 10 scale to make the data more normally distributed. Log 10 OGD data was averaged across two observers and the left and right eyes. The mixed effects ANOVA model included treatment group as a fixed effect and week as a random effect. 95% and 99% confidence intervals were constructed for the disease (5 day DS vs untreated group kept in separate vivarium) and compound treatment effects (treatment vs vehicle). […]

integrin α4 = molecular target: T1, integrin α4 (Homo sapiens, UniProt P13612); test: IC50/IC90 concentrations and required tissue levels quoted in FIG. 6 legend
T1 sequence (P13612 34-1032): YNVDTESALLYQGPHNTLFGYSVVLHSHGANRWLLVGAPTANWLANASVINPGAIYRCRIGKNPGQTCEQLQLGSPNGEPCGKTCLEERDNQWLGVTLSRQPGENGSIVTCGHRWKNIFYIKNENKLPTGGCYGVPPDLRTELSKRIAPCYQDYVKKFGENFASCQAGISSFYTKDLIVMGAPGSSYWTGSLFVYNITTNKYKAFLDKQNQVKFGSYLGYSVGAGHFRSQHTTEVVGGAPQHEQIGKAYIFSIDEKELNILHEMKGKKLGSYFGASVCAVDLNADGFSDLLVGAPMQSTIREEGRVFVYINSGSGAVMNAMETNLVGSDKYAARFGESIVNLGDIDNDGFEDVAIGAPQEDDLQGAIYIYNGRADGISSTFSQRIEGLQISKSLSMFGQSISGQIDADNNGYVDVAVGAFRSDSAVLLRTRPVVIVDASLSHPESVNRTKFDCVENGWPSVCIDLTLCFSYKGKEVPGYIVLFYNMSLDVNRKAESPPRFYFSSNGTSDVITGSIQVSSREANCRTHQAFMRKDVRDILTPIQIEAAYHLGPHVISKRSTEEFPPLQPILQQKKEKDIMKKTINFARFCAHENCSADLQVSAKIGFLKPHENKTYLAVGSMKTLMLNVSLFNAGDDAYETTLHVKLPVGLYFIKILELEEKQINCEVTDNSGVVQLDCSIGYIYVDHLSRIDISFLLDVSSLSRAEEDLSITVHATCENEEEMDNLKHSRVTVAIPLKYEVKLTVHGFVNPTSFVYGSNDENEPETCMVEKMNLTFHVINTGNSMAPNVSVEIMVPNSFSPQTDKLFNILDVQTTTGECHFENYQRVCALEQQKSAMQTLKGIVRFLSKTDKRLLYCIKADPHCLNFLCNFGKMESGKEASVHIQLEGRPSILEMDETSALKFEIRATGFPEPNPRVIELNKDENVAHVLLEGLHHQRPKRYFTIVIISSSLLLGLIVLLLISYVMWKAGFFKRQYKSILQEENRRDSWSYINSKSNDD

With `Cc1ccccc1OCC(=O)N[C@@H](CC(C)C)C(=O)N[C@@H](Cc1ccc(OC(=O)N2CCC(C(N)=O)CC2)cc1)C(=O)O` [GW559090, (2S)-3-[4-({[4-(Aminocarbonyl)-1-piperidinyl]carbonyl}oxy)phenyl]-2-[((2S)-4-methyl-2-{[2-(2-methylphenoxy)acetyl]amino}pentanoyl)amino]propanoic acid] as the compound, how does the “CXCL9 transcripts in cornea” value [1] read?
Its value is “significant decrease”.

And the “CXCL-9 expression in conjunctiva” value [1]?
The value was “no change”.

What about the “IL-1α expression in conjunctiva” value [1] of the same compound?
The value was “no change”.

And the “IL-1α transcripts in cornea” value [1]?
The value was “significant decrease”.

What about the “MMP-9 expression in conjunctiva” value [1] of the same compound?
Its value is “no change”.

What about the “MMP-9 transcripts in cornea” value [1] of the same compound?
Its value is “significant decrease”.

And the “TGF-β1 expression in conjunctiva” value [1]?
Its value is “significant reduction”.

And the “TGF-β1 transcripts in cornea” value [1]?
The value was “significant decrease”.

And the IC50 (integrin α4; FIG. 6 legend, read-out: 1050 concentration (converted))?
The IC50 was ~8 nM and ~8.38 nM.

And the IC90 (integrin α4; FIG. 6 legend, read-out: IC90 concentration)?
The IC90 was ~80 nM and ~0.048 µg/mL.

And the “Approximate tissue level required to achieve the 1050 concentration” value (integrin α4; if protein binding is 98%)?
The value was ~400 nM and ~240 ng/mL.

What about the IC90 (integrin α4; if protein binding is 98%, read-out: Approximate tissue level required to achieve the IC90 concentration) of the same compound?
Its IC90 is ~4 µM and ~2.4 µg/mL.
